The values below are quoted from earlier work in patent US8916356B2, “Measuring thrombin activity in whole blood” (Synapse B.V., priority 2005, dated 2014).

Data set [1] deals with thrombin generation in platelet rich plasma (or whole blood). The conditions noted are these: literature refs 13-16.
For data set [2] the following is noted: literature ref 17.

Regarding `CCCCS(=O)(=O)N[C@@H](Cc1ccc(OCCCCC2CCNCC2)cc1)C(=O)O` [MK383], the “effect on thrombin generation” value in data set [1] is “inhibit thrombin generation”.
Take `CC(=O)Oc1ccccc1C(=O)O` [aspirin]: the “effect on thrombin generation” value in data set [1] is recorded as “inhibit thrombin generation”. For the same molecule, in data set [2], the “effect on venous thrombosis” value is “prevents venous thrombosis”.
On to `COC(=O)[C@H](c1ccccc1Cl)N1CCc2sccc2C1` [clopidogrel], for which, in data set [1], the “effect on thrombin generation” value was “inhibit thrombin generation”.

B1: abciximab (antibody, chains of the INN, looked up, V domains shown)
VH: EVQLQQSGTVLARPGASVKMSCEASGYTFTNYWMHWVKQRPGQGLEWIGAIYPGNSDTSYIQKFKGKAKLTAVTSTTSVYMELSSLTNEDSAVYYCTLYDGYYVFAYWGQGTLVTVSA
VL: EIVLTQSPVTLSVTPGDSVSLSCRASRDISNNLHWFQQTSHESPRLLIKYASQSMSGIPSRFSGSGSGTDFTLSINSVETEDFGMYFCQQTNSWPYTFGGGTKLEIK
modifications: Fab
notes: antiplatelet agent
As to B1, the “effect on thrombin generation” value in data set [1] is listed as “inhibit thrombin generation”.
